In brackets after ≈: the same amount, converted by molar mass.
Columns and labels:
Experiment in all cases: MIC, antibacterial activity (series dilution)
Type in all cases: cell-based
[1] = system: Klebs. 57 USA; settings: 37° C., about 20 hours
Description: (§1) The MIC values were determined with the aid of the microdilution method in BH medium. Each test substance was dissolved in the nutrient medium. A concentration series of the test substances was prepared in the microtiter plate by serial dilution. Overnight cultures of the pathogens, which were first diluted 1:250 in the nutrient medium, were used for the inoculation. 100 μl portions of inoculation solution were added to 100 μl of the dilute nutrient solutions containing the active compound. The microtiter plates were incubated at 37° C. and read off after about 20 hours. The MIC value (μg/ml) indicates the lowest concentration of active compound at which no growth was detectable. The minimum inhibitory concentrations (MIC) were determined by the series dilution method on Iso-Sensitest agar (Oxoid). A series of agar plates which contained concentrations of the active compound which decreased by two-fold dilution each time was prepared for each test substance. The agar plates were inoculated with a multipoint inoculator (Denley). Overnight cultures of the pathogens which had been diluted beforehand such that each inoculation point contained about 10^4 colony-forming particles were used for the inoculation. The inoculated agar plates were incubated at 37° C. and the germ growth was read off up to about 20 hours. The MIC value (μg/ml) indicates the lowest concentration of active compound at which no growth was detectable with the naked eye.

[2] = system: Staph 25701; settings: 37° C., about 20 hours
Description: as §1

[3] = system: Staph. 9TV; settings: 37° C., about 20 hours
Description: as §1

[4] = system: Staph. 133; settings: 37° C., about 20 hours
Description: as §1

[5] = system: E. coli Neumann; settings: Escherichia coli, 37° C., about 20 hours
Description: as §1

[6] = system: Psdm. Bonn; settings: 37° C., about 20 hours
Description: as §1

[7] = system: Staph. 48N; settings: 37° C., about 20 hours
Description: as §1

Row | Compound | MIC [1] [µg/mL] | MIC [2] [µg/mL] | MIC [3] [µg/mL] | MIC [4] [µg/mL] | MIC [5] [µg/mL] | MIC [6] [µg/mL] | MIC [7] [µg/mL]
1 | CC(=O)NC[C@H]1CN(c2ccc3nc([S+](C)[O-])sc3c2)C(=O)O1 (stereo partly drawn) [Example 32, (5S)-3-(2-Methylsulphinyl-benzo[4,5-d]-thiazol-6-yl)-5-acetylaminomethyl-oxazolidin-2-one] | > 64 | 1 (≈ 2.83 µM) | 0.5 (≈ 1.41 µM) | 1 (≈ 2.83 µM) | > 64 | > 64 | 2 (≈ 5.66 µM)
2 | CC(=O)NC[C@H]1CN(c2ccc3nc(S(=O)(=O)Cc4ccccc4)sc3c2)C(=O)O1 [Example 33, (5S)-3-(2-Benzylsulphonyl-benzo[4,5-d]thiazol-6-yl)-5-acetylaminomethyloxazolidin-2-one] | > 64 | 2 (≈ 4.49 µM) | 4 (≈ 8.98 µM) | 4 (≈ 8.98 µM) | > 64 | > 64 | 2 (≈ 4.49 µM)
3 | CC(=O)NC[C@H]1CN(c2ccc3nc([S+]([O-])Cc4ccccc4)sc3c2)C(=O)O1 (stereo partly shown) [Example 36] | > 64 | 4 (≈ 9.31 µM) | 2 (≈ 4.66 µM) | 4 (≈ 9.31 µM) | > 64 | > 64 | 4 (≈ 9.31 µM)
4 | CC(=O)NC[C@H]1CN(c2ccc3nc(S(C)(=O)=O)sc3c2)C(=O)O1 [Example 37] | > 64 | 1 (≈ 2.71 µM) | 1 (≈ 2.71 µM) | 2 (≈ 5.41 µM) | > 64 | > 64 | 2 (≈ 5.41 µM)

Second part, the compound after the results:

Row | MIC [1] [µg/mL] | MIC [2] [µg/mL] | MIC [3] [µg/mL] | MIC [4] [µg/mL] | MIC [5] [µg/mL] | MIC [6] [µg/mL] | MIC [7] [µg/mL] | Compound
5 | > 64 | 0.25 (≈ 0.741 µM) | 0.25 (≈ 0.741 µM) | 2 (≈ 5.93 µM) | > 64 | > 64 | 1 (≈ 2.96 µM) | CSc1nc2ccc(N3C[C@H](CNC(C)=O)OC3=O)cc2s1 [Example 24, (5S )-3-(2-Methylthio-benzo[4,5-d]thiazol-6-yl)-5-acetylaminomethyl-oxazolidin-2-one]
6 | > 64 | 1 (≈ 3.46 µM) | 1 (≈ 3.46 µM) | 2 (≈ 6.91 µM) | > 64 | > 64 | 1 (≈ 3.46 µM) | CC(=O)NC[C@H]1CN(c2ccc3nc(C)oc3c2)C(=O)O1 [Example 25, (5S)-3-(2-Methyl-benzo[4,5-d]oxazol-6-yl)-5-acetamino-methyl-oxazolidin-2-one]
7 | > 64 | 1 (≈ 3.27 µM) | 1 (≈ 3.27 µM) | 2 (≈ 6.55 µM) | > 64 | > 64 | 1 (≈ 3.27 µM) | CC(=O)NC[C@H]1CN(c2ccc3nc(C)sc3c2)C(=O)O1 [Example 26]

Reference: patent US5529998A, “Benzoxazolyl- and benzothiazolyloxazolidinones” (Bayer Aktiengesellschaft, priority 1994, dated 1996)
